Converted amounts (≈) assume the structure as drawn. “And” between values parts separate entries of the source, which are not always exact repeats. Equal entries are not always repeated.
Assays:
Format in all cases: physicochemical
[1] = Aqueous solubility as a function of pH; conditions: for Solubility / solubility at 24 h: room temperature (25° C.), shaken 24 hours; for solubility at 24 h: 25 °C, thermodynamic from solid
Procedure: In addition to the characterizing analyses by XRPD, XRC, DSC, ATR-FTIR and SS NMR discussed hereinabove, the solubility of {4-[(1R,3S)-3-((R)-1-Naphthalen-1-yl-ethylamino)-cyclopentyl]-phenoxy}-acetic acid Form C and X has been determined as function of pH and in MeOH.
The aqueous solubility of Form C and Form X was determined as a function of pH at 25° C. in 0.1N HCl (pH 1.0) and in Sorensen phosphate buffers at pH 2.0, 4.0, 6.0 and 8.0. For each pH value two individual determinations were made. Form C or Form X was weighed out (11 mg for pH 1, 4 mg for pH 2-8) in scintillation vials and 4 ml 0.1N HCl or buffer was added. The vials were shaken for 24 hours at 25° C. After 24 hours it was checked that the vial still contained undissolved material. The suspensions were filtered through a 0.45 μm filter, which was first saturated with app. 0.5 ml filtrate. The resulting filtrates were diluted and analyzed by HPLC vs. a standard curve.

[2] = Stress stability test for solid state transformation; conditions: 60° C., 60° C./75% relative humidity and 80° C./75% relative humidity; 4 weeks
Procedure: Polymorph Form C, Form X and mixtures of the two polymorphic forms C+X have all been tested at different conditions of temperature and relative humidity for signs of solid state transformation. The stress stability test was carried out at three sets of conditions: 60° C., 60° C./75% relative humidity and 80° C./75% relative humidity, and samples were analyzed after 1, 2 and 4 weeks, i.e. after 7, 14 and 28 days.
One 1.8 ml amber screw top vial (27267-U, Supelco) containing between 50 and 100 mg {4-[(1R,3S)-3-((R)-1-Naphthalen-1-yl-ethylamino)-cyclopentyl]-phenoxy}-acetic acid was tested per individual set of conditions. The vials to be tested at 60° C. were closed with a PTFE lined black polypropylene solid cap (27416, Supelco) and placed in a thermostated heating cabinet. The vials to be tested at 60° C./75% relative humidity and 80° C./75% relative humidity were placed uncapped in a desiccator containing a saturated NaCl solution. The desiccator was subsequently placed in a thermostatted heating cabinet.
The samples were analyzed at 1, 2 and 4 weeks for • 1. Visual appearance • 2. HPLC assay and impurities • 3. Polymorph characterization

[3] = Thermo gravimetric analysis (TGA); conditions: TGA trail of Graph 4b (Form X), ±2° C.
Procedure: TGA experiments were conducted using a Perkin Elmer Pyris 1 TGA instrument. About 10-20 mg of sample was loaded into a ceramic pan for the measurements. The sample temperature was ramped from 25 to 350° C. at 10° C./min. Nitrogen was used as the purge gas at a flow rate of 40 mL/min.

Row | Solubility ([1]; pH 1.0 (0.1N HCl)) | Solubility ([1]; pH 2.0 (Sorensen phosphate buffer)) | Solubility ([1]; pH 4.0 (Sorensen phosphate buffer)) | Solubility ([1]; pH 6.0 (Sorensen phosphate buffer)) | Solubility ([1]; pH 8.0 (Sorensen phosphate buffer)) | 4 week stress stability test without any solid state transformation [2] | solubility at 24 h ([1]; 0.1N HCl, pH 1, simulated gastric fluid, pH 1.0 (0.1N HCl)) | solubility at 24 h ([1]; Sorensen phosphate buffer, pH 2, aqueous buffer, pH 2.0 (Sorensen phosphate buffer)) | solubility at 24 h ([1]; Sorensen phosphate buffer, pH 4, aqueous buffer, pH 4.0 (Sorensen phosphate buffer)) | solubility at 24 h ([1]; Sorensen phosphate buffer, pH 6, aqueous buffer, pH 6.0 (Sorensen phosphate buffer)) | solubility at 24 h ([1]; Sorensen phosphate buffer, pH 8, aqueous buffer, pH 8.0 (Sorensen phosphate buffer)) | solubility compared to Form C ([1]; room temperature) | stable towards degradation at temperatures below [3] | Compound
1 | 1225 µg/mL (≈ 3150 µM) | 394 µg/mL and 329 µg/mL | 52 µg/mL and 53 µg/mL | 43 µg/mL (≈ 110 µM) | 55 µg/mL (≈ 141 µM) | passed | – | – | – | – | – | – | – | C[C@@H](N[C@H]1CC[C@@H](c2ccc(OCC(=O)O)cc2)C1)c1cccc2ccccc12 [Form C, {4-[(1R,3S)-3-((R)-1-Naphthalen-1-yl-ethylamino)-cyclopentyl]-phenoxy}-acetic acid]
2 | – | – | – | – | – | passed | 1240 µg/mL (≈ 3190 µM) | 551 µg/mL (≈ 1410 µM) | 86 µg/mL (≈ 221 µM) | 78 µg/mL (≈ 200 µM) | 80 µg/mL (≈ 205 µM) | higher | – | C[C@@H](N[C@H]1CC[C@@H](c2ccc(OCC(=O)O)cc2)C1)c1cccc2ccccc12 [Form X, {4-[(1R,3S)-3-((R)-1-Naphthalen-1-yl-ethylamino)-cyclopentyl]-phenoxy}-acetic acid]
3 | – | – | – | – | – | passed | – | – | – | – | – | – | below 255 °C | C[C@@H](N[C@H]1CC[C@@H](c2ccc(OCC(=O)O)cc2)C1)c1cccc2ccccc12 [{4-[(1R,3S)-3-((R)-1-Naphthalen-1-yl-ethylamino)-cyclopentyl]-phenoxy}-acetic acid]

Source: patent US8946474B2, “Polymorphic form of a calcimimetic compound” (LEO Pharma A/S, priority 2010, dated 2015)
